Test results taken from PubChem BioAssay (NCI).
Values joined by “and” are separate entries in the source; they are usually repeats but may differ in a detail not shown here. Identical values can stand only once.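 Dose response: 5 concentrations. Exposure: 48 h. Format: 96-well plates. Endpoint: linear interpolation; highest concentration if not reached. At the GI50, growth is halved. At the TGI there is no net growth.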

What was measured:
Test in all cases: NCI anticancer screen, dose series, 48 h
RPMI-8226 leukemia = system: RPMI-8226 leukemia
SR leukemia = system: SR leukemia
HCT-116 colon = system: HCT-116 colon
KM12 colon = system: KM12 colon
UO-31 renal = system: UO-31 renal
HL-60(TB) leukemia = system: HL-60(TB) leukemia
HCC-2998 colon = system: HCC-2998 colon
T-47D breast = system: T-47D breast
HOP-92 NSCLC = system: HOP-92 NSCLC
LOX IMVI melanoma = system: LOX IMVI melanoma

Compound | TGI (RPMI-8226 leukemia) | TGI (SR leukemia) [µM] | TGI (HCT-116 colon) | TGI (KM12 colon) | TGI (UO-31 renal) | TGI (HL-60(TB) leukemia) | TGI (HCC-2998 colon) | TGI (T-47D breast) | TGI (HOP-92 NSCLC) [µM] | TGI (LOX IMVI melanoma) | GI50 (RPMI-8226 leukemia) | GI50 (SR leukemia) [µM] | GI50 (HCT-116 colon) | GI50 (HOP-92 NSCLC) [µM] | GI50 (LOX IMVI melanoma) | GI50 (KM12 colon) | GI50 (UO-31 renal) | GI50 (HL-60(TB) leukemia) | GI50 (HCC-2998 colon) | GI50 (T-47D breast)
COc1ccc(C(=O)/C=C/c2ccc(OCCCCCCCCCCOc3ccc(/C=C/C(=O)c4ccc(OC)cc4)cc3)cc2)cc1 | > 100 µM | > 100 | > 100 µM | > 100 µM | > 100 µM | > 100 µM | > 100 µM | > 100 µM | – | – | – | – | – | – | – | – | – | – | – | –
Cc1ccc(OP(=O)(Oc2ccc(C)cc2)N2C=Cc3ccccc3C2C#N)cc1 (stereo not drawn) | > 100 µM | > 100 | > 100 µM | > 100 µM | > 100 µM | > 100 µM | – | > 100 µM | > 100 | > 100 µM | – | – | – | – | – | – | – | – | – | –
[N-]=[N+]=NCN1C(=O)C2C3C=CC(C2C1=O)C1C2C(=O)N(CN=[N+]=[N-])C(=O)C2C31 (stereo not drawn) | > 100 µM | – | > 100 µM | > 100 µM | > 100 µM | – | 69.8 µM | > 100 µM | > 100 | > 100 µM | – | – | – | – | – | – | – | – | – | –
CCC[CH2][Sn](=[O])[CH2]CCC | > 50 µM | > 50 | > 50 µM | > 50 µM | > 50 µM | > 50 µM | > 50 µM | – | > 50 | > 50 µM | > 50 µM | > 50 | > 50 µM | 31.9 | > 50 µM | > 50 µM | > 50 µM | > 36.2 µM | > 50 µM | –
COc1ccc2c(c1)CCC1C2CC[C@@]2(C)C1CC[C@@H]2NC(=O)Cc1ccc(O)c(O)c1 (stereo partly drawn) | > 100 µM | 18.7 | 18.9 µM | 21.7 µM | 15.2 µM | – | 28.2 µM | 72.8 µM | 30.8 | 20.6 µM | 3.68 µM | 3.46 | 3.53 µM | 14.2 | 8.15 µM | 5.47 µM | 3.56 µM | – | 13.4 µM | 6.91 µM
CSc1ccc(C2=NN(C(C)=O)C(c3ccc(-c4cc(Cl)c(Cl)cc4Cl)o3)C2)cc1 (stereo not drawn) | 41 µM | – | 21.9 µM | 35.7 µM | 25.4 µM | 30.4 µM | 29.6 µM | 37.2 µM | 23.6 | 28.7 µM | 10.9 µM | – | 10.3 µM | 11.2 | 15.4 µM | 16.9 µM | 12.4 µM | 12 µM | 15.8 µM | 11.9 µM
CC(C)(C)C1=CC(=N/N=c2\scc(-c3ccccc3)n2-c2ccccc2)C=C(C(C)(C)C)C1=O | > 100 µM | > 100 | > 100 µM | > 100 µM | > 100 µM | > 100 µM | > 100 µM | – | > 100 | > 100 µM | – | – | – | – | – | – | – | – | – | –
C=C(C)[C@@H]1CC[C@]2(CO)CC[C@]3(C)[C@H](CC[C@@H]4[C@@]5(C)CCCNC(C)(C)[C@@H]5CC[C@]43C)[C@@H]12 | 4.51 µM | – | 2.63 µM | 3.24 µM | 2.99 µM | – | 2.93 µM | 3.71 µM | 3.33 | – | 1.94 µM | – | 1.29 µM | 1.73 | – | 1.73 µM | 1.56 µM | – | 1.51 µM | 1.73 µM
COc1nc(N)nc2c1ncn2C1CC(O)C(CO)O1 (stereo not drawn) | > 100 µM | > 100 | > 100 µM | > 100 µM | > 100 µM | > 100 µM | – | > 100 µM | > 100 | > 100 µM | – | – | – | – | – | – | – | – | – | –
Cc1ccc(OCC2CO2)c(Br)c1 (stereo not drawn) | 74.9 µM | – | 73.3 µM | > 100 µM | 39.1 µM | > 100 µM | 34.8 µM | > 100 µM | 36.5 | 30.4 µM | – | – | – | – | – | – | – | – | – | –
C[C@@H]1C[C@H](N)C[C@H](c2ccncc2NC(=O)c2ccc(F)c(-c3c(F)cccc3F)n2)C1 | 11.4 µM and > 10 µM | – | 24.4 µM and > 10 µM | 27.7 µM and > 10 µM | 18.6 µM and > 10 µM | 12.1 µM and > 10 µM | 18 µM and > 10 µM | 28.5 µM and > 10 µM | – | 23.3 µM and > 10 µM | 0.592 µM and 0.939 µM | – | 12.1 µM and 6.94 µM | – | 10.6 µM and > 10 µM | 12.3 µM and > 10 µM | 3.65 µM and 1.28 µM | 2.73 µM and 1.48 µM | 3.42 µM and 4.16 µM | 10.5 µM and 8.5 µM
CSC(=O)C[C@@]12O[C@@H]([C@@H](C)C3CCC4[C@@H]5C(O)CC6=CC(=O)C=C[C@]6(C)C5CC[C@@]43C)C[C@](C)(O1)C(C)(C)O2 (stereo partly drawn) | 34.3 µM | 34.8 | 26.4 µM | 32.9 µM | 24.8 µM | 38.2 µM | 41.6 µM | – | 23 | 25.1 µM | – | – | – | – | – | – | – | – | – | –
CCC1=C(c2ccc(OC)cc2)C(C)(C)Oc2c1ccc(O)c2CN1CCCC1 | 2.45 µM | 3.63 | – | 3.9 µM | > 100 µM | 3.12 µM | 2.88 µM | 4.64 µM | 3.98 | 2.8 µM | 0.721 µM | 0.927 | – | 1.23 | 1.46 µM | 1.91 µM | 2.19 µM | 0.871 µM | 1.44 µM | 1.45 µM
CCOC(=O)c1[nH]c2cc(Cl)ccc2c1[C@@H](C(=O)NC(C)(C)C)N(CC)C(=O)CCCCC#Cc1cccc2c1CN(C1CCC(=O)NC1=O)C2=O (stereo partly drawn) | 2.88 µM | – | 18.5 µM | > 100 µM | 2.95 µM | 0.0959 µM | 58 µM | 7.59 µM | < 0.0238 | > 86.5 µM | 0.185 µM | – | 2.55 µM | < 0.01 | 3.18 µM | 0.901 µM | 0.0425 µM | < 0.01 µM | 0.225 µM | < 0.01 µM
COc1cc2nc(Nc3cccc(Cl)c3)nc(N)c2cc1OC | 5.34 µM | – | 6.35 µM | 15.7 µM | 20.9 µM | 39.4 µM | 3.57 µM | 24 µM | 14.6 | 6.14 µM | 2.11 µM | – | 2.34 µM | 2.59 | 2.45 µM | 4.07 µM | 6.66 µM | 10.7 µM | 1.89 µM | 5.13 µM
CCOC(=O)C1(C(=O)OCC)C(C(C)(C)C)=C(C)c2ccccc21 | 55.8 µM | > 100 | 20.2 µM | 25.9 µM | 47.3 µM | 40.9 µM | 31.2 µM | – | 16.7 | 25 µM | – | – | – | – | – | – | – | – | – | –
COc1ccccc1C#Cc1ccccc1C#Cc1ccc(OCCCCCCOc2ccccc2C#Cc2ccccc2C#Cc2ccccc2OC)cc1 | > 100 µM | – | > 100 µM | > 100 µM | > 100 µM | > 100 µM | > 100 µM | > 100 µM | > 100 | > 100 µM | > 100 µM | – | > 100 µM | 90.1 | > 100 µM | > 100 µM | > 100 µM | > 100 µM | > 100 µM | > 100 µM
Oc1ccccc1-c1nn(CNc2ccc(Cl)cc2)c(=S)o1 | > 100 µM | 43.4 | 51.4 µM | > 100 µM | > 100 µM | – | – | > 100 µM | > 100 | – | > 100 µM | 16 | 18.2 µM | 88.8 | – | 11.7 µM | > 100 µM | – | – | 57 µM
O=c1cc(-c2ccc(F)cc2)[nH]c2ncccc12 | > 100 µM | – | > 100 µM | > 100 µM | > 100 µM | 34.1 µM | > 100 µM | > 100 µM | > 100 | > 100 µM | – | – | 42.9 µM | – | – | – | – | 12.9 µM | – | –
CN(C)CCNc1ccc2ncn3c4ccc(O)cc4c(=O)c1c23 | 13.1 µM | – | 11.5 µM | > 35.7 µM | 8.06 µM | 13.6 µM | 12.7 µM | 25 µM | 13.8 | 3.36 µM | – | – | – | – | – | – | – | – | – | –
CSc1cc([C@@H]2C[C@H]2c2ccc(Cl)cc2)on1 | 44.8 µM | – | 67.8 µM | 30.3 µM | > 100 µM | – | 15 µM | > 100 µM | 27.3 | 19.9 µM | 22.7 µM | – | 17.4 µM | 7.97 | 3.99 µM | 14.5 µM | 21.6 µM | – | 1.25 µM | 22.2 µM
O=[N+]([O-])c1ccc(-c2csc(N=Nc3c(O)[nH]c4ccccc34)n2)cc1 | – | – | > 100 µM | > 100 µM | 39.2 µM | – | 50.5 µM | > 100 µM | 74.5 | > 100 µM | – | – | – | – | – | – | – | – | – | –
Cc1ccc(S(=O)(=O)ON2C(=O)c3cccc4cc([N+](=O)[O-])cc(c34)C2=O)cc1 | > 100 µM | > 100 | > 100 µM | > 100 µM | > 100 µM | – | 58.9 µM | > 100 µM | > 100 | > 100 µM | – | – | – | – | – | – | – | – | – | –
CC1SC(c2ccccc2Cl)N(NC(=O)C(O)c2ccccc2)C1=O (stereo not drawn) | > 100 µM | > 100 | > 100 µM | > 100 µM | > 100 µM | > 100 µM | > 100 µM | – | > 100 | > 100 µM | 45 µM | 40 | 96.1 µM | > 100 | > 100 µM | > 100 µM | 74.9 µM | 82.4 µM | > 100 µM | –
O=S1(=O)c2ccccc2N(O)C2=NCCN21 | > 100 µM | > 100 | > 100 µM | > 100 µM | > 100 µM | > 100 µM | > 100 µM | – | > 100 | > 100 µM | – | – | – | – | – | – | – | – | – | –
CC(=O)OC12C(C)=C(C)C(=O)N1c1ccccc1N2C(C)=O (stereo not drawn) | > 100 µM | > 100 | > 100 µM | > 100 µM | > 100 µM | > 100 µM | > 100 µM | – | > 100 | > 100 µM | – | – | – | – | – | – | – | – | – | –
